How the values were obtained:
[1] = test system: KRAS G12A NSCLC CDX model NCI-H2009; assay: In vivo CDX xenograft efficacy, NCI-H2009; set-up: species or system Balb/c nude mice; conditions: oral
Method: (§1) The vehicle/control article, 0.5% Methyl Cellulose & 0.1% Tween 80 or 100 mM acetic acid in deionized water with pH adjustment to 4.8-5.0, was prepared and stored under ambient conditions throughout the study period.
(§2) The test article, compound 1, was freshly prepared in vehicle of 0.5% Methyl Cellulose & 0.1% Tween 80 weekly and stored under ambient conditions. The combination agent, compound 2, was freshly prepared in vehicle of 100 mM acetic buffer weekly and stored under ambient conditions.
(§3) Female Balb/c nude mice were purchased from the Beijing Vital River Laboratory Animal Technology Co., Ltd. Mice were hosted at special pathogen-free (SPF) environment of vivarium facility and acclimated to their new environment for at least 3 days prior to initiation of any experiments. Mice were between 6-8 weeks of age at the time of implantation.
(§4) NCI-H2009 is a human NSCLC cell line that harbored a KRAS^G12A mutation. The NCI-H2009 cell line was purchased from the American Type Culture Collection (ATCC® CRL-5911). NCI-H2009 cells were cultured in medium containing RPMI-1640 plus 10% Fetal Bovine Serum (FBS) and supplemented with Glutamax and pyruvate at 37° C. in an atmosphere of 5% CO2 in air. NCI-H2009 cells in 100 μL cell suspensions containing 5×10^6 cells mixed with 50% Matrigel were implanted into mice subcutaneously. When tumor volumes reached a mean of 200 mm^3, tumor-bearing mice were randomized into different groups with 8 mice in each group and treatment started on the day of randomization.
(§5) Mice were dosed by oral administration of vehicle control solution, compound 1, or compound 2 in monotherapy treatment groups. Mice were dosed by oral administration of combinations, including compound 1 with compound 2. The dosing volume was 5 mL/kg for each compound and interval of BID regimen was 8 hours. In the combination of compound 1 with compound 2, compound 1 was dosed at one-hour post compound 2 QD or first BID dose. […] The study was terminated at the end of 4-week treatment or when tumor volume in vehicle control group reached 2,000 mm^3.

[2] = test system: KRAS G12V NSCLC CDX model NCI-H441; assay: In vivo CDX xenograft efficacy, NCI-H441; set-up: species or system Balb/c nude mice; conditions: oral
Method: as §1, §2, §3
as §4, with “NCI-H441” for “NCI-H2009”, “harbors” for “harbored”, “KRAS^G12V” for “KRAS^G12A”, “HTB-174™). NCI-H441” for “CRL-5911). NCI-H2009”, “(FBS),” for “(FBS) and supplemented with Glutamax and pyruvate”, “200” for “100”
as §5

| Structure (SMILES) | TGI ([1]; monotherapy 15 mg/kg QD) | TGI ([1]; monotherapy 30 mg/kg QD) | TGI ([2]; monotherapy 15 mg/kg QD) | TGI ([2]; monotherapy 30 mg/kg QD) | TGI ([1]; monotherapy 30 mg/kg BID) | TGI ([2]; monotherapy 30 mg/kg BID) |
| --- | --- | --- | --- | --- | --- | --- |
| COCOC[C@H]1C[C@H]2COc3c(Sc4cnc(N5CCC6(CC5)CO[C@@H](C)[C@H]6N)c(CO)n4)ccnc3N2C1 [Compound 2, (3-((3S,4S)-4-amino-3-methyl-2-oxa-8-azaspiro[4.5]decan-8-yl)-6-(((6aS,8S)-8-((methoxymethoxy)methyl)-6a,7,8,9-tetrahydro-6H-pyrido[3,2-b]pyrrolo[1,2-d][1,4]oxazin-4-yl)thio)pyrazin-2-yl)methanol] | 73% | 90% | 87% | 101% |  |  |
| Cc1cnc(NC2CCOCC2)nc1-n1cnc(C(=O)N[C@H](CN)c2cc(F)cc(Cl)c2)c1 [Compound 1, (S)—N-(2-amino-1-(3-chloro-5-fluorophenyl)ethyl)-1-(5-methyl-2-((tetrahydro-2H-pyran-4-yl)amino)pyrimidin-4-yl)-1H-imidazole-4-carboxamide] |  |  |  | 94% | 93% | 115% |

Source: patent US20240299388A1, “ERK1/2 AND SHP2 INHIBITORS COMBINATION THERAPY” (Erasca, Inc., priority 2021, published 2024)
